{"source": "patent US20160338928A1", "about": "“SKIN ENGAGING MEMBER COMPRISING A CYCLOHEXANECARBOXAMIDE DERIVATIVE” (The Gillette Company, priority 2015, published 2016)", "key": {"[1]": {"conditions": "concentration where the cooling effect could be clearly recognized; reported by Emberger and Hopp 1987; cited from earlier work"}, "human TRPM8": {"target": "T1, human TRPM8 (Homo sapiens, UniProt Q7Z2W7)", "T1 construct": "expressed in transfected cells", "T1 sequence (Q7Z2W7 whole entry)": "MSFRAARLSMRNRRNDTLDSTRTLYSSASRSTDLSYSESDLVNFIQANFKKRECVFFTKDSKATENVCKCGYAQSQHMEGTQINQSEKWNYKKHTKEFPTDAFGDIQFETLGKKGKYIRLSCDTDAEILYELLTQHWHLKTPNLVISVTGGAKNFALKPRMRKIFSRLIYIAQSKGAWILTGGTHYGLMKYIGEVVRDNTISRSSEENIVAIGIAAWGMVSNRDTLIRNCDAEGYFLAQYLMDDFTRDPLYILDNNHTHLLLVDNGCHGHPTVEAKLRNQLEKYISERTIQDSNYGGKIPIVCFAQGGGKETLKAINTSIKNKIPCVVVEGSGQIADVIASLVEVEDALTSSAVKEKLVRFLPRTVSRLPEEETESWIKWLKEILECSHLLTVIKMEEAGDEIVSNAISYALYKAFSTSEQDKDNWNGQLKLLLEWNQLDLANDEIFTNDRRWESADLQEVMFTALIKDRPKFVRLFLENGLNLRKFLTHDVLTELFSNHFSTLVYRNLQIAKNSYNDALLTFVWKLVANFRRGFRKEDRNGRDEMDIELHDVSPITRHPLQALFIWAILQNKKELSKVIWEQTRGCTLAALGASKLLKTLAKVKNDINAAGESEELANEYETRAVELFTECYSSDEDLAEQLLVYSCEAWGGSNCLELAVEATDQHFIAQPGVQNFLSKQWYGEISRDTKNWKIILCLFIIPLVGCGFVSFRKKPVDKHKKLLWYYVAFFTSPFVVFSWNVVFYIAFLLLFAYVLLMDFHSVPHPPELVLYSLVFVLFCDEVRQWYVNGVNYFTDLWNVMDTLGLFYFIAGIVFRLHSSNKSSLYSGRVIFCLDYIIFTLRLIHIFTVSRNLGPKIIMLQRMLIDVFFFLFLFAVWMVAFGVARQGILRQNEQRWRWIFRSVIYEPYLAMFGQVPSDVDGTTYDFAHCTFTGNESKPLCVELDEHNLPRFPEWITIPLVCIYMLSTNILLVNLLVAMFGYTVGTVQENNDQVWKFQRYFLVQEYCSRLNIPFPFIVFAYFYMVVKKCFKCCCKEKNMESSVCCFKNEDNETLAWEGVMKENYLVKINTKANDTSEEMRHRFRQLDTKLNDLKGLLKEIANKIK", "assay": "TRPM8 activation, FLIPR calcium flux in HEK cells stably transfected with human TRPM8", "type": "cell-based", "conditions": "amino acid derived side chain (alanine) in R (28) and S (776) configuration", "procedure": "[…] (human embryonic kidney) cells stably transfected with human TRPM8 are grown in 15 ml growth medium (high glucose DMEM (Dulbecco's Modification of Eagle's Medium) supplemented with 10% FBS (fetal bovine serum), 100 ug/ml penicillin/streptomycin, 5 μg/ml blasticindin, and 100 μg/ml zeocin) in a 75 CM^2 flask for 3 days at 37° C. in a mammalian cell culture incubator set at 5% CO2. Cells are detached with addition of 2 ml of trypsin-EDTA buffer (GIBCO® 25200, Invitrogen) for about 2-3 min. Trypsin is inactivated by addition of 8 ml growth medium. Cells are transferred to a 50 ml tube and centrifuged at 850 rpm for 3 minutes to remove medium. After centrifugation, a pellet of cells is formed in the bottom of the tube separating them from the supernatant solution. […] (Fluo-4 AM is a fluorescent dye used for quantifying cellular Ca^2+ concentrations in the 100 nM to 1 microM range.) At the end of 30 minutes, 45 ml of assay buffer (1×HBSS (Hank's Balanced Salt Solution), 20 mM HEPES (4-(2-Hydroxyethyl)-1-piperazineethanesulfonic acid)) is added to wash cells and the resulting mixture is then centrifuged at 850 rpm for 3 minutes to remove excess buffer and Fluo-4 AM calcium indicator. […]"}}}
{"smiles": "CC(C)[C@@H]1CC[C@@H](C)C[C@@H]1O", "note": "[Compound 1-neomenthol, 1-neomenthol]", "values": [{"measurement": "cooling threshold", "setting": "[1]", "result": "about 3,000 ppb"}]}
{"smiles": "CC(C)[C@@H]1CC[C@@H](C)C[C@H]1C(=O)NCC(NC(=O)[C@@H](C)N)c1ccccc1", "note": "(some centres unmarked) [Compound 28]", "values": [{"measurement": "activity towards the receptor", "setting": "human TRPM8", "result": "excellent activity"}]}
{"smiles": "COc1ccc(NC(=O)[C@@H]2C[C@H](C)CC[C@H]2C(C)C)c(NC(=O)[C@H](C)N)c1", "note": "[Compound 776]", "values": [{"measurement": "activity towards the receptor", "setting": "human TRPM8", "result": "excellent activity"}]}
{"smiles": "CC(C)[C@@H]1CC[C@@H](C)C[C@H]1O", "note": "[L-menthol]", "values": [{"measurement": "cooling threshold", "setting": "[1]", "result": "about 800 ppb"}]}
{"smiles": "CC(C)[C@@H]1CC[C@@H](C)C[C@@H]1O", "note": "[d-neomenthol]", "values": [{"measurement": "cooling threshold", "setting": "[1]", "result": "about 25,000 ppb"}]}
